These results are taken from US20090311237A1, “Combination therapy using a soluble hyaluronidase and a bisphosphonate” (priority 2008, published 2009).

For series [1] the following is noted: rats; single IV administration of 1.6 mg/kg; cited from earlier work.
Another series concerns Sprague Dawley rats. Description: Semi-quantitative histopathology of skin at injection site after ID zoledronic acid with or without rHuPH20. In kind it is in vivo. Further details: key: —: Dash indicates no incidence of the indicated observation. The settings on record: rat ID; ZA 0.4 mg/mL; rHuPH20 0 U/ml; 4 days. As to the method:
Nine to ten week old female Sprague Dawley rats, having approximate body weight of 200-250 grams, were employed for the study. One day prior to injection, rats were shaved and hair on the back and flank area were removed by Nair® cream (exposure less than 1 min to depilation cream) followed by deep wash with warm tap water. On the day of dosing, all rats were injected intradermally in flank area (one or two injection spots per side), with 0.1 or 0.2 mL as indicated of zoledronic acid solution, with or without rHuPH20, at each corresponding concentration as shown in study design table. Injection site appearance was observed and quantified by blind assessment each day following the injection until the end of the study, at which time animals were sacrificed and the skin around the dosing area as well as a part of the skin that was not effected by the dosing were collected and fixed in 10% neutral buffered formalin (NBF) and further embedded in paraffin, 5 μm sections were cut for H&E stain and histopathology evaluation.
Lesion area was calculated by the following formula: W×L×¼π. Quantitative results were analyzed using one-way analysis of variance (ANOVA) method, followed by Dunnett's comparison method (Prizm 4 program). […] Histopathologic findings were characterized by semi-quantitative analysis of necrosis and infiltration in the skin tissue. […]

As to `O=P(O)(O)C(O)(Cn1ccnc1)P(=O)(O)O` [ZA, 1-hydroxy-2-(1H-imidazol-1-yl)ethylidene-1,1-bisphosphonic acid], the injection site finding result in series [1] is “local irritation at the injection site”. Also, in the series with Sprague Dawley rats, the “Necrosis: Superficial dermis” value is “—”.
